From article PMC6691816, “Discovery of aminopyridine-containing spiro derivatives as EGFR mutations inhibitors” (Journal of Enzyme Inhibition and Medicinal Chemistry, 2019) come the findings set out here.

For one test, the target named is T1, EGF-R wt (Homo sapiens, UniProt P00533).
T1 construct: purchased ProQinase GmbH
As to the kind of experiment: EGFR-wt protein kinase assay (33PanQinase), single concentration. The test is classed as biochemical. Conditions: 0.5 μM (5 × 10^−7 M), singlicate, % of control activity; for remaining activity at 0.5 µM: read-out: Residual activity under 0.5 μM drug concentration (%) EGF-R wt. As for the experimental part:
(§1) The inhibitory profile of 16 compounds was determined using two protein kinases. The compounds were tested at a concentration of 5 × 1 0^−7 M, in singlicate. The compounds were solved and diluted to 5 × 10^−5 M stock solutions in 100% DMSO according to the customer-filled CSF. 10 μL of each of the stock solutions were transferred into […] of a 96-well, Column 1 and 2 of the plate were filled with 10 μL100% DMSO. The plate is in the following referred to as “copy plate”. In the process, 90 μL H2O were added to each well of the copy plate. To minimize potential compound precipitation, the H2O was added to each well only a few minutes before the transfer of the compound solutions into the assay plates. The plate was shaken thoroughly, resulting in a “compound dilution plate” with a compound concentration of 5 × 10^−6 M/10% DMSO. This plate was used for the transfer of 5 μL compound solution into the assay plates. The final volume of the assay was 50 μL. All compounds were tested at 5 × 1 0^−7 M in singlicate. The final DMSO concentration in the reaction cocktails was 1% in all cases. The compound dilution plate was disposed.
(§2) A radiometric protein kinase assay (33PanQinase® Activity Assay) was used for measuring the kinase activity of the two protein kinases. All kinase assays were performed in 96-well FlashPlatesTM from PerkinElmer (Boston, MA, USA) in a 50 μL reaction volume. The reaction cocktail was pipetted in 4 steps in the following order: 20 μL of assay buffer, 5 μL of ATP solution (in H2O), 5 μL of test compound (in 10% DMSO), 20 μL enzyme/subtrate mix. The assay for both protein kinases contained 70 mM HEPES-NaOH pH 7.5, 3 mM MgCl2, 3 mM MnCl2, 3 μM Na-orthovanadate, 1.2 mM DTT, ATP. The assay for ERBB2 additionally contained 50 μg/mLPEG20000. The reaction cocktails were incubated at 30 °C for 60 min. The reaction was stopped with 50 μL of 2% (v/v) H3PO4, plates were aspirated and washed two times with 200 μL 0.9% (w/v) NaCl. Incorporation of 33Pi was determined with a microplate scintillation counter (Microbeta, Wallac). All assays were performed with a BeckmanCoulter/SAGIAN™Core System. The median value of the counts in column 1 (n = 8) of each assay plate was defined as “low control”. This value reflects unspecific binding of radioactivity to the plate in the absence of a protein kinase but in the presence of the substrate. The median value of the counts in column 2 of each assay plate (n = 8) was taken as the “high control”. As part of the data evaluation the low control value from a particular plate was subtracted from the high control value as well as from all 80 “compound values” of the corresponding plate. The residual activity (in %) for each well of a particular plate was calculated by using the following formula: Res. Activity (%) = 100 × [(cpm of compound – low control)/(high control − low control)]

Another test concerns the target T2, HER2 (Homo sapiens, UniProt P04626).
T2 construct: purchased ProQinase GmbH
As to the kind of experiment: HER2 protein kinase assay (33PanQinase), single concentration. Format: biochemical. Conditions: 0.5 μM (5 × 10^−7 M), singlicate, % of control activity; for remaining activity at 0.5 µM: read-out: Residual activity under 0.5 μM drug concentration (%) HER2. As for the experimental part: as §1, §2

As to “(2E)-4-{6′-[(5-cyano-4-{[1-(pyridin-2-ylmethyl)pyrazol-4-yl]amino} pyrimidin-2-yl)amino]-5′-methoxyspiro[cyclopropane-1,3′-indole]-1′-yl}-1-(dimethylamino)-4-oxobut-2-en-2-yl trifluoroacetate [Compound B6]”, the “Residual activity under 0.5 μM drug concentration (%) EGF-R wt” value on EGF-R wt worked out at 94%. For the same compound, the “Residual activity under 0.5 μM drug concentration (%) HER2” value on HER2 came to 113%.
On to `COc1cc2c(cc1Nc1ncc(C#N)c(Nc3ccc(OCc4ccccn4)c(Cl)c3)n1)N(C(=O)/C=C/CN(C)C)CC1(CC1)O2` [Compound C2, (2E)-4-{6-[(4-{[3-chloro-4-(pyridin-2-ylmethoxy)phenyl]amino}-5-cyanopyrimidin-2-yl)amino]-7-methoxyspiro[1,4-benzoxazine-2,1′-cyclopropane]-4-yl}-1-(dimethylamino)-4-oxobut-2-en-2-yl], for which the remaining activity at 0.5 µM is 76% at EGF-R wt and 108% at HER2.
As to `C=CC(=O)N1CC2(CCN(C)CC2)c2cc(OC)c(Nc3ncc(C#N)c(Nc4cnn(Cc5ccccn5)c4)n3)cc21` [Compound A4, 2-{[5-methoxy-1′-methyl-1-(prop-2-enoyl)-1,2-dihydrospiro[indole-3,4′ -piperidine]-6-yl]amino}-4-{[1-(pyridin-2-ylmethyl)-1H-pyrazol-4-yl]amino}pyrimidine-5-carbonitrile], the “Residual activity under 0.5 μM drug concentration (%) EGF-R wt” value at EGF-R wt was found to be 27%. Moreover, the remaining activity at 0.5 µM at EGF-R wt was 20 to 60%; on HER2 it was 34%.
For `COc1cc2c(cc1Nc1ncc(C#N)c(Nc3ccc(OCc4ccccc4)c(Cl)c3)n1)N(C(=O)/C=C/CN(C)C)CC1(CC1)O2` [Compound C3, (2E)-4-{6-[(4-{[4-(benzyloxy)-3-chlorophenyl]amino}-5-cyanopyrimidin-2-yl)amino]-7-methoxyspiro[1,4-benzoxazine-2,1′-cyclopropane]-4-yl}-1-(dimethylamino)-4-oxobut-2-en-2-yl], the remaining activity at 0.5 µM at EGF-R wt was 79%; on HER2 it was 111%.
As to `CCOc1cc2ncc(C#N)c(Nc3ccc(OCc4ccccn4)c(Cl)c3)c2cc1NC(=O)/C=C/CN(C)C` [Neratinib, reference compound], the remaining activity at 0.5 µM on HER2 is 6%.
With `COc1cc2c(cc1Nc1ncc(C#N)c(Nc3cnn(Cc4ccccn4)c3)n1)N(C(=O)/C=C/CN(C)C)CC1(CC1)O2` [Compound C4, (2E)-4-{6-[(5-cyano-4-{[1-(pyridin-2-ylmethyl)pyrazol-4-yl]amino}pyrimidin-2-yl)amino]-7-methoxyspiro[1,4-benzoxazine-2,1′-cyclopropane]-4-yl}-1-(dimethylamino)-4-oxobut-2-en-2-yl], the remaining activity at 0.5 µM on EGF-R wt worked out at 85%; at HER2 it was 100%.
The corresponding values for `COc1cc2c(cc1Nc1ncc(C#N)c(Nc3ccc(OCc4ccccn4)cc3)n1)N(C(=O)/C=C/CN(C)C)CC1(CC1)O2` [Compound C1, (2E)-4-{6-[(5-cyano-4-{[4-(pyridin-2-ylmethoxy)phenyl]amino}pyrimidin-2-yl)amino]-7-methoxyspiro[1,4-benzoxazine-2,1′-cyclopropane]-4-yl}-1-(dimethylamino)-4-oxobut-2-en-2-yl] are 86% and 100%.
Regarding `COc1cc2c(cc1Nc1ncc(C#N)c(Nc3ccc(OCc4ccccn4)c(Cl)c3)n1)N(C(=O)/C=C/CN(C)C)CC21CC1` [Compound B2, (2E)-4-{6′-[(4-{[3-chloro-4-(pyridin-2-ylmethoxy)phenyl]amino}-5-cyanopyrimidin-2-yl)amino]-5′-methoxyspiro[cyclopropane-1,3′-indole]-1′-yl}-1-(dimethylamino)-4-oxobut-2-en-2-yl], the remaining activity at 0.5 µM came out at 97% on EGF-R wt and 100% on HER2.
The matching figures for `C=CC(=O)N1CC2(CCN(C)CC2)c2cc(OC)c(Nc3ncc(C#N)c(Nc4ccc(OCc5ccccc5)c(Cl)c4)n3)cc21` [Compound A3, 4-{[4-(benzyloxy)-3-chlorophenyl]amino}-2-{[5-methoxy-1′-methyl-1-(prop-2-enoyl)-1,2-dihydrospiro[indole-3,4′-piperidine]-6-yl]amino}pyrimidine-5-carbonitrile]: 19% and 12%.
The matching figures for `C=CC(=O)N1CC2(CC2)c2cc(OC)c(Nc3ncc(C#N)c(Nc4ccc(OCc5ccccn5)cc4)n3)cc21` [Compound B4, 3-{6′-[(5-cyano-4-{[4-(pyridin-2-ylmethoxy)phenyl]amino}pyrimidin-2-yl)amino]-5′-methoxyspiro [cyclopropane-1, 3′-indole]-1′-yl}-3-oxoprop-1-en-2-yl]: 87% and 99%.
The corresponding values for `C=CC(=O)N1CC2(CC2)c2cc(OC)c(Nc3ncc(C#N)c(Nc4cnn(Cc5ccccn5)c4)n3)cc21` [Compound B7, 3-{6′-[(5-cyano-4-{[1-(pyridin-2-ylmethyl)pyrazol-4-yl]amino}pyrimidin-2-yl)amino]-5′-methoxyspiro[cyclopropane-1,3′-indole]-1′-yl}-3-oxoprop-1-en-2-yl] are 89% and 135%.
`COc1cc2c(cc1Nc1ncc(C#N)c(Nc3ccc(OCc4ccccc4)c(Cl)c3)n1)N(C(=O)/C=C/CN(C)C)CC21CC1` [Compound B3, 4-{[4-(benzyloxy)-3-chlorophenyl]amino}-2-({1′-[(2E)-4-(dimethylamino)but-2-enoyl]-5′-methoxy-1′,2′-dihydrospiro[cyclopropane-1,3′-indole]-6′-yl}amino)pyrimidine-5-carbonitrile]: the values for the remaining activity at 0.5 µM at EGF-R wt and on HER2 were 95% and 102%, respectively.
The matching figures for `COc1cc2c(cc1Nc1ncc(C#N)c(Nc3ccc(OCc4ccccn4)cc3)n1)N(C(=O)/C=C/CN(C)C)CC21CC1` [Compound B1, (2E)-4-{6′-[(5-cyano-4-{[4-(pyridin-2-ylmethoxy)phenyl]amino}pyrimidin-2-yl)amino]-5′-methoxyspiro[cyclopropane-1,3′-indole]-1′-yl}-1-(dimethylamino)-4-oxobut-2-en-2-yl]: 92% and 103%.
